Experimental data: PubChem BioAssay (NCI)
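Protocol summary: plate cells (96-well), add compound at 5 concentrations, incubate 48 h, interpolate endpoints linearly. Definition used: TGI = concentration required for complete inhibition of growth.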

Tests used:
Experiment in all cases: inhibition of tumour cell growth, NCI panel, 48 h
LOX IMVI melanoma = tested on: LOX IMVI melanoma
CCRF-CEM leukemia = tested on: CCRF-CEM leukemia
SR leukemia = tested on: SR leukemia
OVCAR-5 ovarian = tested on: OVCAR-5 ovarian
UACC-257 melanoma = tested on: UACC-257 melanoma
COLO 205 colon = tested on: COLO 205 colon
A549 NSCLC = tested on: A549 NSCLC
OVCAR-8 ovarian = tested on: OVCAR-8 ovarian
MOLT-4 leukemia = tested on: MOLT-4 leukemia
HT29 colon = tested on: HT29 colon
UACC-62 melanoma = tested on: UACC-62 melanoma

CN1C(C)(C)CC(=O)C(Br)C1(C)C (stereo not drawn)
TGI (LOX IMVI melanoma): > 100 µM
TGI (CCRF-CEM leukemia): > 100 µM
TGI (SR leukemia): > 100 µM
TGI (OVCAR-5 ovarian): > 100 µM
TGI (UACC-257 melanoma): > 100 µM
TGI (COLO 205 colon): > 100 µM
TGI (A549 NSCLC): > 100 µM
TGI (OVCAR-8 ovarian): > 100 µM
TGI (MOLT-4 leukemia): > 100 µM
TGI (HT29 colon): > 100 µM
TGI (UACC-62 melanoma): > 100 µM

CC(CNC(=O)c1ccccc1)(CNC(=O)c1ccccc1)[N+](=O)[O-]
TGI (SR leukemia): > 100 µM
TGI (OVCAR-5 ovarian): > 100 µM
TGI (UACC-257 melanoma): > 100 µM
TGI (COLO 205 colon): > 100 µM
TGI (A549 NSCLC): > 100 µM
TGI (OVCAR-8 ovarian): > 100 µM
TGI (MOLT-4 leukemia): > 100 µM
TGI (HT29 colon): > 100 µM
TGI (UACC-62 melanoma): > 100 µM

CC(=O)OCC1OC(OC(C)=O)C(Nc2ncc(-c3ccc(C)cc3)s2)C(OC(C)=O)C1OC(C)=O (stereo not drawn)
TGI (LOX IMVI melanoma): 32 µM
TGI (CCRF-CEM leukemia): 55 µM
TGI (SR leukemia): > 100 µM
TGI (OVCAR-5 ovarian): > 100 µM
TGI (UACC-257 melanoma): 49.1 µM
TGI (COLO 205 colon): 38 µM
TGI (A549 NSCLC): 47.9 µM
TGI (OVCAR-8 ovarian): 69.9 µM
TGI (MOLT-4 leukemia): 49.2 µM
TGI (HT29 colon): 56.1 µM
TGI (UACC-62 melanoma): 29 µM

O=[N+]([O-])c1ccc(CN=C2NNS(=O)(=O)c3ccccc32)cc1
TGI (LOX IMVI melanoma): > 100 µM
TGI (CCRF-CEM leukemia): > 100 µM
TGI (SR leukemia): 99.7 µM
TGI (OVCAR-5 ovarian): > 100 µM
TGI (UACC-257 melanoma): > 100 µM
TGI (COLO 205 colon): > 100 µM
TGI (A549 NSCLC): > 100 µM
TGI (OVCAR-8 ovarian): > 100 µM
TGI (MOLT-4 leukemia): > 100 µM
TGI (HT29 colon): > 100 µM
TGI (UACC-62 melanoma): > 100 µM

CN(C)CCN(C)C(=O)C1CCCN1C(=O)OCc1ccccc1 (stereo not drawn)
TGI (LOX IMVI melanoma): > 100 µM
TGI (CCRF-CEM leukemia): 48.7 µM
TGI (SR leukemia): > 100 µM
TGI (OVCAR-5 ovarian): > 100 µM
TGI (UACC-257 melanoma): > 100 µM
TGI (COLO 205 colon): > 100 µM
TGI (A549 NSCLC): > 100 µM
TGI (OVCAR-8 ovarian): > 100 µM
TGI (MOLT-4 leukemia): > 100 µM
TGI (HT29 colon): > 100 µM
TGI (UACC-62 melanoma): > 100 µM

O=C1CCSc2nc(-c3ccc4c(c3)OCO4)nn21
TGI (LOX IMVI melanoma): > 10 µM
TGI (CCRF-CEM leukemia): > 10 µM
TGI (SR leukemia): > 10 µM
TGI (OVCAR-5 ovarian): > 10 µM
TGI (UACC-257 melanoma): > 10 µM
TGI (COLO 205 colon): > 10 µM
TGI (A549 NSCLC): > 10 µM
TGI (OVCAR-8 ovarian): > 10 µM
TGI (MOLT-4 leukemia): > 10 µM
TGI (HT29 colon): > 10 µM
TGI (UACC-62 melanoma): > 10 µM

CC(C)CC(NC=O)C(=O)NC(Cc1ccccc1)NC(=O)CNC(=O)C(C)NC(=O)C(N)Cc1ccc(O)cc1 (stereo not drawn)
TGI (LOX IMVI melanoma): > 100 µM
TGI (SR leukemia): > 100 µM
TGI (OVCAR-5 ovarian): > 100 µM
TGI (COLO 205 colon): > 100 µM
TGI (A549 NSCLC): > 100 µM
TGI (OVCAR-8 ovarian): > 100 µM
TGI (MOLT-4 leukemia): > 100 µM
TGI (HT29 colon): > 100 µM
TGI (UACC-62 melanoma): > 100 µM

Cc1ccc(S(=O)(=O)ON2C(=O)c3c(N)c(C#N)c(-c4ccccc4)c(-c4ccccc4)c3C2=O)cc1
TGI (LOX IMVI melanoma): 31.1 µM
TGI (CCRF-CEM leukemia): 27 µM
TGI (SR leukemia): 35.9 µM
TGI (OVCAR-5 ovarian): 60 µM
TGI (UACC-257 melanoma): 38 µM
TGI (COLO 205 colon): 33.1 µM
TGI (A549 NSCLC): 43 µM
TGI (OVCAR-8 ovarian): 46 µM
TGI (MOLT-4 leukemia): 38.7 µM
TGI (HT29 colon): 42.2 µM
TGI (UACC-62 melanoma): 33.7 µM

CC(=O)Oc1ccc(Nn2c3ccccc3c3ccccc32)c(C)c1
TGI (CCRF-CEM leukemia): > 100 µM
TGI (SR leukemia): 65.5 µM
TGI (OVCAR-5 ovarian): > 100 µM
TGI (UACC-257 melanoma): > 100 µM
TGI (COLO 205 colon): > 100 µM
TGI (A549 NSCLC): > 100 µM
TGI (OVCAR-8 ovarian): 78.6 µM
TGI (MOLT-4 leukemia): 77.7 µM
TGI (UACC-62 melanoma): > 100 µM

COc1ccccc1N1C(=O)CSC1c1cc(OC)c(OC)c(OC)c1 (stereo not drawn)
TGI (LOX IMVI melanoma): > 100 µM
TGI (CCRF-CEM leukemia): 76.6 µM
TGI (SR leukemia): > 100 µM
TGI (OVCAR-5 ovarian): > 100 µM
TGI (UACC-257 melanoma): > 100 µM
TGI (COLO 205 colon): > 100 µM
TGI (A549 NSCLC): > 100 µM
TGI (OVCAR-8 ovarian): > 100 µM
TGI (MOLT-4 leukemia): > 100 µM
TGI (HT29 colon): > 100 µM
TGI (UACC-62 melanoma): > 66.1 µM

C=CC(OC(=O)C(C)C)c1ccc(OC(=O)C(C)C)cc1 (stereo not drawn)
TGI (LOX IMVI melanoma): 16.6 µM
TGI (CCRF-CEM leukemia): 10.7 µM
TGI (SR leukemia): > 100 µM
TGI (OVCAR-5 ovarian): 20.2 µM
TGI (UACC-257 melanoma): 27.9 µM
TGI (COLO 205 colon): 27.6 µM
TGI (A549 NSCLC): 36.9 µM
TGI (OVCAR-8 ovarian): 31.4 µM
TGI (MOLT-4 leukemia): 49.7 µM
TGI (HT29 colon): 26.3 µM
TGI (UACC-62 melanoma): 31 µM

COC(=O)c1ccc(C)cc1C1CN=NC12Cc1cc(C)ccc1C2=O (stereo not drawn)
TGI (LOX IMVI melanoma): 42.9 µM
TGI (CCRF-CEM leukemia): > 100 µM
TGI (SR leukemia): 32.2 µM
TGI (OVCAR-5 ovarian): > 100 µM
TGI (UACC-257 melanoma): > 94.2 µM
TGI (COLO 205 colon): 19.1 µM
TGI (A549 NSCLC): > 100 µM
TGI (OVCAR-8 ovarian): > 100 µM
TGI (MOLT-4 leukemia): > 86.6 µM
TGI (HT29 colon): 15.2 µM
TGI (UACC-62 melanoma): > 87.3 µM

COC(=O)CC(CNC(=O)OCc1ccccc1)OCc1ccc(OC)cc1 (stereo not drawn)
TGI (LOX IMVI melanoma): > 100 µM
TGI (CCRF-CEM leukemia): > 100 µM
TGI (SR leukemia): > 100 µM
TGI (OVCAR-5 ovarian): > 100 µM
TGI (UACC-257 melanoma): > 100 µM
TGI (COLO 205 colon): > 100 µM
TGI (A549 NSCLC): > 100 µM
TGI (OVCAR-8 ovarian): > 100 µM
TGI (MOLT-4 leukemia): > 100 µM
TGI (UACC-62 melanoma): > 100 µM

O=C(NCCc1ccccc1)c1cc(/C=C/c2cc(O)ccc2O)ccc1O
TGI (LOX IMVI melanoma): 17.5 µM
TGI (CCRF-CEM leukemia): > 40.3 µM
TGI (SR leukemia): 8.58 µM
TGI (OVCAR-5 ovarian): 25.3 µM
TGI (UACC-257 melanoma): 8.57 µM
TGI (COLO 205 colon): 17.6 µM
TGI (A549 NSCLC): > 41.1 µM
TGI (OVCAR-8 ovarian): 16.3 µM
TGI (MOLT-4 leukemia): 7.5 µM
TGI (HT29 colon): > 50 µM
TGI (UACC-62 melanoma): 5.03 µM

CC(C)COP(C)(=O)C(N)(C(F)(F)F)C(F)(F)F (stereo not drawn)
TGI (LOX IMVI melanoma): > 100 µM
TGI (CCRF-CEM leukemia): > 100 µM
TGI (SR leukemia): > 100 µM
TGI (OVCAR-5 ovarian): > 100 µM
TGI (UACC-257 melanoma): > 100 µM
TGI (COLO 205 colon): > 100 µM
TGI (A549 NSCLC): > 100 µM
TGI (OVCAR-8 ovarian): > 100 µM
TGI (MOLT-4 leukemia): > 100 µM
TGI (HT29 colon): > 100 µM
TGI (UACC-62 melanoma): > 100 µM

O=C(/C=C/c1ccc(O)c(O)c1)NC(COC(=O)/C=C/c1ccc(O)c(O)c1)C(=O)O (stereo not drawn)
TGI (LOX IMVI melanoma): > 100 µM
TGI (CCRF-CEM leukemia): > 100 µM
TGI (SR leukemia): > 100 µM
TGI (OVCAR-5 ovarian): > 100 µM
TGI (UACC-257 melanoma): > 100 µM
TGI (COLO 205 colon): > 100 µM
TGI (A549 NSCLC): > 100 µM
TGI (OVCAR-8 ovarian): > 100 µM
TGI (MOLT-4 leukemia): > 100 µM
TGI (HT29 colon): > 100 µM
TGI (UACC-62 melanoma): > 100 µM

O=C1CCN2C(=N1)Sc1ccccc12
TGI (LOX IMVI melanoma): > 100 µM
TGI (CCRF-CEM leukemia): > 100 µM
TGI (SR leukemia): > 100 µM
TGI (OVCAR-5 ovarian): > 100 µM
TGI (UACC-257 melanoma): > 100 µM
TGI (COLO 205 colon): > 100 µM
TGI (A549 NSCLC): > 100 µM
TGI (OVCAR-8 ovarian): > 100 µM
TGI (MOLT-4 leukemia): > 100 µM
TGI (HT29 colon): > 100 µM
TGI (UACC-62 melanoma): > 100 µM

CCOC(=O)C1(C#N)C(C#N)(C#N)C1(C#N)C#N
TGI (LOX IMVI melanoma): > 100 µM
TGI (CCRF-CEM leukemia): > 100 µM
TGI (SR leukemia): > 100 µM
TGI (OVCAR-5 ovarian): > 100 µM
TGI (UACC-257 melanoma): > 100 µM
TGI (COLO 205 colon): > 100 µM
TGI (A549 NSCLC): > 100 µM
TGI (OVCAR-8 ovarian): > 100 µM
TGI (MOLT-4 leukemia): > 100 µM
TGI (HT29 colon): > 100 µM
TGI (UACC-62 melanoma): > 100 µM

CC(C)OC(=O)NNc1cccc(Cl)c1
TGI (LOX IMVI melanoma): > 100 µM
TGI (CCRF-CEM leukemia): > 100 µM
TGI (SR leukemia): > 100 µM
TGI (OVCAR-5 ovarian): > 100 µM
TGI (UACC-257 melanoma): > 100 µM
TGI (COLO 205 colon): > 100 µM
TGI (A549 NSCLC): > 100 µM
TGI (OVCAR-8 ovarian): > 100 µM
TGI (MOLT-4 leukemia): > 100 µM
TGI (HT29 colon): > 100 µM
TGI (UACC-62 melanoma): > 100 µM

CC(=O)O[C@H]1CC[C@@]2(C)C(=CC[C@@H]3[C@@H]2CC[C@](C)(c2nnc(C)o2)[C@H]3CC#N)C1
TGI (LOX IMVI melanoma): > 100 µM
TGI (CCRF-CEM leukemia): > 100 µM
TGI (SR leukemia): > 100 µM
TGI (OVCAR-5 ovarian): > 100 µM
TGI (UACC-257 melanoma): > 100 µM
TGI (COLO 205 colon): > 100 µM
TGI (A549 NSCLC): > 100 µM
TGI (OVCAR-8 ovarian): > 100 µM
TGI (MOLT-4 leukemia): > 100 µM
TGI (HT29 colon): > 100 µM
TGI (UACC-62 melanoma): > 100 µM
